# According to the OligoGym collection:
# Values joined by “and” are separate entries in the source; they are usually repeats but may differ in a detail not shown here. Equal entries are not always repeated. After the bases stand the sugars from the 5' end (letter, count) and the backbone: PS all phosphorothioate, else s phosphorothioate and o phosphodiester by linkage. Methylation of C is not given here. e = 2'-O-(2-methoxyethyl) (MOE); k = constrained ethyl (cEt); d = 2'-deoxy (DNA)
# Target: SOD1
# Conditions: ASO
Sequence,"target mRNA inhibition (HepG2, 5 µM)","target mRNA inhibition (HepG2, 3 µM)",other results
"AATCTTCCAAGTGATCA (sugars e2 k2 d8 k2 e3, PS)",19%,–,–
"AATGATGCAATGGTCTCCTG (sugars e5 d10 e5, PS)",0%,–,–
"AATGCTTCCCCACACCT (sugars e3 k2 d7 k2 e3, PS)",–,35%,–
"AATTCTGACAAGTTTAA (sugars e3 k2 d7 k2 e3, PS)",–,15%,–
"ACACCTTCACTGGTCCA (sugars e3 k2 d7 k2 e3, PS)",–,20%,–
"ACACCTTCACTGGTCCATTA (sugars e5 d10 e5, linkages s1 o3 s11 o3 s1)",–,–,"target mRNA inhibition (A431, 0.12 µM): 5%; target mRNA inhibition (A431, 0.6 µM): 4%; target mRNA inhibition (A431, 3 µM): 4%; target mRNA inhibition (A431, 15 µM): 10%; target mRNA inhibition (HepG2, 2 µM): 50% and 36% and 39%"
"ACAGGCTTGAATGACAAAGA (sugars e5 d10 e5, PS)",19%,–,–
"ACAGGGTTTTTATTCAC (sugars e3 k2 d7 k2 e3, PS)",–,10%,–
"ACAGGTACTTTAAAGCA (sugars e2 k2 d8 k2 e3, PS)",14%,–,–
"ACAGTGTTTAATGTTTA (sugars e3 k2 d7 k2 e3, linkages s1 o2 s9 o2 s2)",–,–,"target mRNA inhibition (A431, 0.12 µM): 12%; target mRNA inhibition (A431, 0.6 µM): 26%; target mRNA inhibition (A431, 3 µM): 45%; target mRNA inhibition (A431, 15 µM): 47%; target mRNA inhibition (HepG2, 0.222 µM): 51%; target mRNA inhibition (HepG2, 0.667 µM): 70%; target mRNA inhibition (HepG2, 2 µM): 80%; target mRNA inhibition (HepG2, 6 µM): 74%"
"ACCAGTGTGCGGCCAATGAT (sugars e5 d10 e5, PS)",0%,–,–
"ACCCATCTGTGATTTAA (sugars e2 k2 d8 k2 e3, PS)",33%,–,–
"ACCTGCACTGGTACAGC (sugars e3 k2 d7 k2 e3, PS)",–,12%,–
"ACTATACAAATCTTCCA (sugars e3 k2 d7 k2 e3, PS)",–,10%,–
"ACTCATGAACATGGAATCCA (sugars e5 d10 e5, PS)",27% and 20%,–,–
"ACTCTGAAAAAGTCACACAA (sugars e5 d10 e5, PS)",21%,–,–
"ACTGGTACAGCCTGCTGTAT (sugars e5 d10 e5, PS)",22% and 28%,–,–
"ACTGGTCCATTACTTTC (sugars e3 k2 d7 k2 e3, PS)",–,14%,–
"ACTTTAAAGCAACTCTGAAA (sugars e5 d10 e5, PS)",0%,–,–
"AGACACATCGGCCACAC (sugars e3 k2 d7 k2 e3, PS)",–,21%,–
"AGACATTTTAACTGAGT (sugars e2 k2 d8 k2 e3, PS)",46%,–,–
"AGATCACAGAATCTTCAATA (sugars e5 d10 e5, PS)",14% and 29%,–,–

Sequence,"target mRNA inhibition (HepG2, 5 µM)","target mRNA inhibition (HepG2, 3 µM)",other results
"AGATTACAGTGTTTAAT (sugars e2 k2 d8 k2 e3, PS)",68%,62%,"target mRNA inhibition (HepG2, 0.1875 µM): 16%; target mRNA inhibition (HepG2, 0.75 µM): 50%; target mRNA inhibition (HepG2, 12 µM): 77%"
"AGATTACAGTGTTTAAT (sugars e2 k2 d9 k2 e2, PS)",63%,63%,"target mRNA inhibition (HepG2, 0.1875 µM): 28%; target mRNA inhibition (HepG2, 0.75 µM): 41%; target mRNA inhibition (HepG2, 12 µM): 71%"
"AGGAGACTACGACGCAAACC (sugars e5 d10 e5, PS)",–,–,"target mRNA inhibition (HepG2, 4 µM): 35%"
"AGGATAACAGATGAGTT (sugars e3 k2 d7 k2 e3, PS)",–,45%,–
"AGGATACATTTCTACAG (sugars e2 k2 d9 k2 e2, PS)",–,81%,"target mRNA inhibition (HepG2, 0.1875 µM): 9%; target mRNA inhibition (HepG2, 0.75 µM): 52%; target mRNA inhibition (HepG2, 4 µM): 77%; target mRNA inhibition (HepG2, 12 µM): 95%"
"AGGTACTTTAAAGCAAC (sugars e2 k2 d8 k2 e3, PS)",35%,–,–
"AGGTACTTTAAAGCAAC (sugars e2 k2 d9 k2 e2, PS)",42%,–,–
"AGTGATCATAAATCAGT (sugars e2 k2 d8 k2 e3, PS)",23%,–,–
"AGTGCCATACAGGGTTT (sugars e2 k2 d8 k2 e3, PS)",20%,–,–
"AGTGCCATACAGGGTTT (sugars e2 k2 d9 k2 e2, PS)",27%,–,–
"AGTGCCATACAGGGTTT (sugars e3 k2 d7 k2 e3, PS)",–,9%,–
"AGTGTTTAATGTTTATC (sugars e2 k2 d8 k2 e3, PS)",88%,84%,"target mRNA inhibition (HepG2, 0.1875 µM): 46%; target mRNA inhibition (HepG2, 0.75 µM): 74%; target mRNA inhibition (HepG2, 12 µM): 81%"
"AGTTTAATACCCATCTG (sugars e2 k2 d9 k2 e2, PS)",43%,–,–
"AGTTTCTCACTACAGGT (sugars e2 k2 d8 k2 e3, PS)",33%,–,–
"ATAACTCGCTAGGCCACGCC (sugars e5 d10 e5, PS)",–,–,"target mRNA inhibition (HepG2, 4 µM): 12%"
"ATAAGTGCCATACAGGG (sugars e2 k2 d8 k2 e3, PS)",36%,–,–
"ATAATAAGTGCCATACA (sugars e2 k2 d8 k2 e3, PS)",27%,–,–
"ATAATAAGTGCCATACAGGG (sugars e5 d10 e5, PS)",18%,–,–
"ATACAGGGTTTTTATTC (sugars e3 k2 d7 k2 e3, PS)",–,3%,–
"ATACATTTCTACAGCTA (sugars e3 k2 d7 k2 e3, PS)",–,57% and 82%,"target mRNA inhibition (HepG2, 0.1875 µM): 34%; target mRNA inhibition (HepG2, 0.75 µM): 56%; target mRNA inhibition (HepG2, 12 µM): 93%"
"ATCAGTTTCTCACTACA (sugars e2 k2 d8 k2 e3, PS)",31%,–,–
